Source: US5505715A, “Iontophoretic transdermal delivery of deoxyspergualin compounds” (priority 1994, dated 1996)
Entries after “also recorded” stand apart in the source; their conditions may differ. Like-named read-outs stand apart in the source and are kept apart here.

Columns and labels:
[1] = tested on: anti-KLH antibody response (keyhole limpet hemocyanin); experiment: in vivo immunosuppression (anti-KLH antibody response) in fuzzy rats; design: species or system fuzzy rat
Description: The humoral response of animals to the foreign protein keyhole limpet hemocyanin (KLH) is used routinely as a model system to test the efficacy of immunosuppressive drugs. Activity in this model has correlated well with activity for suppressing rejection of an allograft or suppressing the development of autoimmune disease in animals. […] The antibody level in the treated animals on the fourteenth day following the initial treatment was still only 6% of the level of the control animals.
Six fuzzy rats were used in this study. The procedure for this study was based on the model described by Tepper et al., Inhibition of Antibody Production by the Immunosuppressive Agent, 15-Deoxyspergualin, Transplant Proc., 23:328-32 (1991). This model involves immunizing the animals with a potent immunogenic antigen, keyhole limpet hemocyanin (KLH). The serum anti-KLH antibody levels (immune response) in the control and treated animals are then measured over 14 days. An effective immunosuppressive agent should result in a suppression of the immune response in the treated animals.
All six fuzzy rats were immunized with a solution of keyhole limpet hemocyanin (1 mg) by intraperitoneal injection. Two rats were used as controls and were not treated with DSG. The other four rats received DSG by transdermal iontophoresis. The electrodes and power supply used in the study of Example 2 were also used for this study. DSG solution (1.5 ml, 15.34 mg) was added to the donor (active) electrode just prior to the experiment. The electrodes were applied to each of the four participating fuzzy rats (one on either side of the spine). Prior to DSG treatment, the animals were anesthetized with METOFANE (methoxyflurane, Pitman-Moore, Mundelein, Ill.) and the hair on the dorsal side depilated. An anesthetic cocktail consisting of 10 ml of KETASET (ketamine HCL, 100 mg/ml; Aveco Co., Inc., Fort Dodge, Iowa) mixed with 2 ml ROMPUN (xylazine, 20 mg/ml; Mobay Corp., Shawnee, Kans.) was used at 0.1 ml per 100 g in order to maintain the animals under anesthesia during the treatment period. A current density of 0.5 mA/cm^2 /hr (2.9 mA total) was used to deliver the DSG. The four rats received DSG by iontophoresis for 3 hours daily over a period of three days (Days 0, 1 and 2) (Day 0 was the first day of the experiment). During this period food and water were provided ad libitum and these four animals were housed individually in metabolic cages so that urine could be collected for analysis. On Day 3 the animals were weighed and then returned to their regular cages for the remaining duration of the study. […]
The blood samples were stored on ice for 1 hour to coagulate and then centrifuged. The serum was separated and analyzed using an ELISA method described below. […] Aliquots were analyzed by HPLC. […]

tumors = settings: cited from earlier work
immune activity = settings: cited from earlier work
[2] = Method: Applicants have evaluated the in vitro delivery of DSG through human cadaver skin using iontophoresis.
An in vitro skin permeation study was conducted to evaluate the iontophoretic transdermal delivery of deoxyspergualin trihydrochloride (DSG) (MW=496) through human cadaver skin mounted in side-by-side glass diffusion cells. A 1.09% w/v solution of DSG was used as the donor solution. The receptor solution was 0.5M NaH2 PO4 aqueous solution. A commercially available power supply (Scepter, Keltronics Corp., Oklahoma City, Okla.) was used. Platinum electrodes were used for this study. The anode was connected to the electrode in the donor side while the cathode was connected to the electrode in the receptor (counterion) fluid. A constant DC current (0.5 mA, 0.78 mA/cm^2) was applied for a period of 48 hours. The receptor solution was sampled at appropriate time intervals. The samples were analyzed for DSG by reverse-phase HPLC using post-column derivatization and fluorescence detection.

[3] = tested on: human anti-mouse antibody (HAMA) response; settings: patients treated with monoclonal antibody therapy, cited from earlier work
[4] = design: species or system fuzzy rat; settings: rat, in vivo
Method: Applicants have further conducted an in vivo study to investigate the rate and extent of absorption of DSG in fuzzy rats following transdermal iontophoretic administration. Using iontophoresis, approximately 4 mg of DSG (i.e., between 15-20 mg/kg) was delivered to fuzzy rats over a three-hour period. This is equivalent to a delivery rate of about 230 μg/cm^2 /hr of DSG. Relatively high serum levels of DSG, about 18 μg/ml, were observed after iontophoretic administration.
An aqueous solution of DSG trihydrochloride (10 mg/ml) was prepared two days prior to the experiment and stored at -5° C. until the start of the experiment. This solution was kept refrigerated during the course of the experiment.
Four male fuzzy rats from Harlan Laboratories (Indianapolis, Ind.) were used in this study after a one week quarantine period. The fuzzy rat is a hypotrichotic genetic mutuant of the normal albino rat. The main difference between adult fuzzy and normal haired rats is the poorly developed hair follicles in the skin of the former. As a result, adult fuzzy rats are almost devoid of hair. The fuzzy rats have an intact immune system. […]
Blood samples were taken from the tail artery during the treatment and at the end of the treatment period. […] Blood samples, used electrodes and skin wipes, and urine were analyzed for DSG by scintillation counting. The urine samples were also analyzed by HPLC.

[5] = tested on: rheumatoid arthritis, diabetes, lupus and multiple sclerosis models; settings: in vivo; cited from earlier work
interleukin-2 production = settings: cited from earlier work
[6] = cited from earlier work
[7] = tested on: organ transplant rejection; settings: humans; cited from earlier work
[8] = cited from earlier work; remark: listed apart in the source
allograft survival = settings: used prophylactically; cited from earlier work

In the case of `N=C(N)NCCCCCCC(=O)NC(O)C(=O)NCCCCNCCCN` (stereo not drawn) [DSG], the “antibody level in treated animals as % of control” value ([1]; Day 14, iontophoresis 3 hours daily for three days) was 6%, the “suppression of immune response” value ([1]; iontophoresis 3 hours daily for three days, versus untreated control) was “substantially suppressed the immune response; also recorded: effectively suppressed the immune response” and the “deaths before Day 7” value ([1]; of four rats treated by iontophoresis) was “Two”. The “dose delivered relative to maximum tolerated dose (MTD)” value ([1]; rat, in vivo) was “proximate to the maximum tolerated dose (MTD)”, the antitumor efficacy (tumors) was “appears to have antitumor efficacy” and the “immunosuppressive activity (in words)” value (immune activity) was “excellent immunosuppressive activity”. The “immunosuppressive potency relative to marketed immunosuppressants” value (immune activity; versus cyclosporin A, azathioprine and prednisone) was “at least as potent as other, currently marketed immunosuppressants”, the “change of permeation rate in later time period” value [2] was “permeation rate decreased during the later time period” and the “equivalent delivery for a 10 cm^2 delivery system” value [2] was 135 mg/day. For the same compound, the “equivalent dose for a 70 kg average body weight person” value [2] was 2 mg/kg/day, the “expected delivery for a 20 cm^2 donor electrode” value [2] was 270 mg/day and the “passive permeation across human cadaver skin” value [2] was “very little passive permeation”. For the same compound, the “permeation rate across human cadaver skin” value [2] was 564 μg/cm^2 /hr, the “activity against HAMA response” value [3] was “immunosuppressive activity against the human anti-mouse antibody (HAMA) response” and the “activity against HAMA response” value ([3]; listed as Deoxyspergualin) was “useful to suppress human anti-mouse antibody (HAMA) response”. For the same compound, the “dose delivered by iontophoresis per body weight” value [4] was 15 to 20 mg/kg, the “serum level of DSG” value ([4]; topical or ocular, 3 h) was “about 18 μg/ml” and the “activity in animal models of autoimmune disease” value [5] was “effective in animal models in the treatment of autoimmune diseases like rheumatoid arthritis, diabetes and multiple sclerosis”. For the same compound, the “inhibition of interleukin-2 production” value (interleukin-2 production) was “does not inhibit interleukin-2production”, the side effect profile ([6]; compared to cyclosporin A, azathioprine and prednisone (b7 also OKT3)) was “superior side effect profile” and the dose limiting toxicity ([6]; in vivo) was “myelosuppression”. The nephrotoxicity ([6]; unlike cyclosporin A) was “not nephrotoxic”, the “clinical activity as an immunosuppressant” value [7] was “clinical activity as an immunosuppressant” and the Cmax ([8]; 4 mg/kg by 3 hour i.v. infusion) was “about 10 μg/ml”. The “clearance from plasma (in words)” value ([8]; human, in vivo) was “relatively rapid clearance”, the plasma clearance ([8]; human, in vivo) was “about 48,000 ml/hr” and the “activity in extending allograft survival” value (allograft survival) was “significant activity in extending allograft survival”.
